In experiment [1] the test system is heat induced tail flicking latency. The experiment in a line: Tail immersion test. The experiment is classed as in vivo. To be noted: mice; for tail flicking latency: after 90 min, without Naloxone. On the procedure: Group I: Control, Group II-XV: WE-1 to WE-7 (sample compounds) at dose of 10 mg/kg and 20 mg/kg and Group XVI: Standard. The control (Group I) was given normal saline. Group II-XV received 10 mg/kg and 20 mg/kg of test sample (WE-1 to WE-7).
The cut-off time was set at 25 s, and the time taken for the mice to flick their tails out of the water was recorded at 30, 60, 90, and 120-min intervals. An increase in the time of tail immersion was compared to the control group to determine the analgesic effect of the tested drugs. The percentage of inhibition was calculated at the time interval showing the highest effect.

Experiment [2] relates to formalin induced paw licking. The experiment in a line: Formalin induced paw licking test. Format: in vivo. To be noted: 20 mg/kg oral, mice. The procedure:
The animals were divided into various groups I-XVI consisting of 8 experimental animals for control, sample compounds (WE-1 to WE-7) and standard. Group I: Control, Group II-XV: WE-1 to WE-7 (sample compounds) at dose of 10 mg/kg and 20 mg/kg and Group XVI: Standard. The control (Group I) was given normal saline. Group II-XV received 10 mg/kg and 20 mg/kg of test sample (WE-1 to WE-7). […] The acute peripheral and centrally mediated analgesic activity of aurone derivatives was evaluated using the formalin-induced pain method, as described. Samples compounds (WE-1 to WE-7) and a standard (Indomethacin 10 mg) were orally administered 30 min prior to 20 μl of 1 % formalin injection (prepared in 0.9 % saline) in right hind paw of the mice and immediately placed in a clear box to observe the animal's reaction. Paw licking or biting within 0–5 min indicated Phase 1, while animal reactions observed between 15 and 30 min indicated Phase 2. The number of paw licking or biting events was compared to the control group, and the percentage of inhibition was calculated.

Where “and” joins values, the source holds several entries; their conditions need not be identical. Equal values may be shown once.

Consider `COc1ccc(C=C2Oc3ccccc3C2=O)cc1OC` [WE-4, 2-(3,4-dimethoxybenzylidene)benzofuran-3(2H)-one], for which the tail flicking latency in experiment [1] (10 mg/kg) was 11.23 ± 0.93; in experiment [1] (20 mg/kg), 13.41 ± 1.21. Besides, the “percentage inhibition of pain, tail immersion” value in experiment [1] (20 mg/kg oral, at interval of highest effect) was found to be 74.31%. Further, the “percentage inhibition of paw licking, Phase I” value in experiment [2] (initial phase) came out at 49.97%. In experiment [2] (late phase), the “percentage inhibition of paw licking, Phase II” value is 70.93% and 70.96%. In addition, the “number of formalin-induced paw licking, Phase II” value in experiment [2] (late phase, control 55.81 ± 3.29) was 16.22 ± 1.86.
